Experimental findings from US11840527B2, “Non-fused thiophene derivatives and their uses” (ENYO PHARMA, priority 2018, dated 2023) are described below.

The test system of one test is NFκB. Nature of the test: NFκB reporter assay, TNFα stimulation of A549 reporter cells. Type of test: cell-based. Conditions: Homo sapiens; A549 NFκB-NanoLuciferase reporter cells, 4 ng/ml TNFα, 6 hours. An excerpt:
Compounds of the present invention have been tested for their capacity to inhibit NFκB.
The NFκB reporter construct was made by cloning 5 NFκB responsive elements upstream of a NanoLuciferase reporter gene flanked by AAVS1 genomic sequences.
NFκB Responsive element fused with NanoLuciferase and SV40 late Poly(A) signal was amplified from pNL3.2-NFκB-Nluc (Promega) using NFκB-NLUC-F and NFκB-NLUC-R primers and inserted by Infusion (TaKaRa) in AAVS1 SA-2A-puro-pA donor plasmid (Hockemeyer et al, Nat Biotechnol. 2009, 27, 851-7) digested by Sall. pCRISPR AAVS1-T2 expressing a guide RNA (gRNA) to target human AAVS1 (T2 target sequence) was constructed by inserting AAVS1-T2A hybridized primers in pLentiCRISPR v2-blast (Sanjana et al, Nat Methods. 2014, 11, 783-4) digested by Bsmb1.
A549 cells were transfected by the plasmids and puromycine selected for 5 days (1 μg mL-1). Then clones were obtained by limiting dilution and selected to maximize TNFα dependent NFkB-NanoLuciferase induction.
The reporter cells were seeded on a 96-well plate for overnight with DMEM including 10% FBS. Test compounds were added at varying concentrations. The cells then were treated with 4 ng/ml TNFα (Peprotech, ref E251) in DMEM+10% FBS. NanoGlo luciferase assay (Promega) was carried out 6 hours later. Luminescence was measured using a Spark 20M spectrofluorimeter (Tecan). Values were normalized to the luminescence measured in untreated cells.
A general note: In a reporter assay the amount or activity of a reporter protein is the signal.

In test [1] the test system is H1N1 (influenza A/New Caledonia/20/99). Nature of the test: Antiviral effect on A549 cells infected with H1N1. Type of test: cell-based, H1N1 A/New Caledonia/20/99 virus. Conditions: Influenza A virus, MOI 0.1, 48 h post-infection, MUNANA neuraminidase readout. The method in brief:
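A549 cells dosed with test compounds over a concentration range and infected at once with clinical isolate H1N1 A/New Caledonia/20/99 (MOI 0.1) in DMEM with […] TPCK trypsin, 37 °C. At 48 h, supernatant neuraminidase activity measured with MUNANA substrate (1 h, 37 °C); 4-MU fluorescence at ex 365/em 450 nm.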

One may read the EC50 as the concentration giving half of the maximal effect. Higher therefore signals lower potency in that assay. The IC50 is the concentration that gives 50% inhibition. Low values mean higher potency, high ones lower potency. For `CC1(c2csc(NC(=O)c3ccc(NCC4CCOCC4)cc3)c2C(=O)O)CC1` [Compound #111, 4-(1-Methylcyclopropyl)-2-[[4-(tetrahydropyran-4-ylmethylamino)benzoyl]amino]thiophene-3-carboxylic acid], the response in the test on NFκB was half-maximal at 2.2 µM (EC50). In test [1], this compound came in with an IC50 of 0.2 µM.
